Test results as given in patent publication US20240228535A1 (priority 2022, published 2024).

Target: SARS2 coronavirus 3CL protease (Severe acute respiratory syndrome coronavirus 2, UniProt P0DTD1)
Assay: biochemical
Conditions: 5 nM enzyme, 30 min pre-incubation with compound, 15 μM peptide substrate, 4 h at room temperature; read-out: FRET Potency (nM); IC50 values in the SARS2 3CLPro FRET assay

**Q.** Which IC50 does the source give for `CNC(=O)C(=O)[C@H](C[C@@H]1C[C@@H](C)NC1=O)NC(=O)c1cc(Cl)cnc1NC(=O)OC1CC1` [Example 140, cyclopropyl N-[5-chloro-3-[[(1S)-3-(methylamino)-1-[[(3S,5R)-5-methyl-2-oxo-pyrrolidin-3-yl]methyl]-2,3-dioxo-propyl]carbamoyl]-2-pyridyl]carbamate] here?
**A.** Its IC50 is 9.2 nM.

**Q.** How did the IC50 turn out when `CNC(=O)C(=O)[C@H](C[C@@H]1C[C@@H](C)NC1=O)NC(=O)c1cc(F)c(F)cc1NC(=O)OC1CC1` [Example 141, cyclopropyl N-[4,5-difluoro-2-[[(1S)-3-(methylamino)-1-[[(3S,5R)-5-methyl-2-oxo-pyrrolidin-3-yl]methyl]-2,3-dioxo-propyl]carbamoyl]phenyl] carbamate] was run?
**A.** The IC50 was 19.8 nM.

**Q.** For `CNC(=O)C(=O)[C@H](C[C@@H]1CCNC1=O)NC(=O)c1cc(Cl)ccc1NC(=O)OC(C)(C)C` [Example 142, tert-butyl N-[4-chloro-2-[[(1S)-3-(methylamino)-2,3-dioxo-1-[[(3S)-2-oxopyrrolidin-3-yl]methyl]propyl]carbamoyl]phenyl]carbamate], which IC50 is on record?
**A.** Its IC50 is 41.1 nM.

**Q.** With `CNC(=O)C(=O)[C@H](C[C@@H]1CCNC1=O)NC(=O)c1cc(Cl)ccc1NC(=O)[C@H]1CC1(F)F` [Example 143, 5-chloro-2-[[(1R)-2,2-difluorocyclopropanecarbonyl]amino]-N-[(1S)-3-(methylamino)-2,3-dioxo-1-[[(3S)-2-oxopyrrolidin-3-yl]methyl]propyl]benzamide] as the compound, how does the IC50 read?
**A.** The IC50 was 3 nM.

**Q.** For `CNC(=O)C(=O)[C@H](C[C@@H]1C[C@@H](C)NC1=O)NC(=O)c1cc(Cl)c(Cl)cc1NC(=O)OC` [Example 144, methyl N-[4,5-dichloro-2-[[(1S)-3-(methylamino)-1-[[(3S,5R)-5-methyl-2-oxo-pyrrolidin-3-yl]methyl]-2,3-dioxo-propyl]carbamoyl]phenyl] carbamate], which IC50 is on record?
**A.** Its IC50 is 5.3 nM.

**Q.** With `C[C@@H]1C[C@@H](C[C@H](NC(=O)c2cc(Cl)ccc2NC(=O)C2CC2)C(=O)C(=O)NC2CC2)C(=O)N1` [Example 145, 5-chloro-2-(cyclopropanecarbonylamino)-N-[(1S)-3-(cyclopropylamino)-1-[[(3S,5R)-5-methyl-2-oxo-pyrrolidin-3-yl]methyl]-2,3-dioxo-propyl]benzamide] as the compound, how does the IC50 read?
**A.** The IC50 was 26.8 nM.

**Q.** For `O=C(Nc1ccc(Cl)cc1C(=O)N[C@@H](C[C@@H]1CCNC1=O)C(=O)C(=O)NC1CC1)OC1CC1` [Example 146, cyclopropyl N-[4-chloro-2-[[(1S)-3-(cyclopropylamino)-2,3-dioxo-1-[[(3S)-2-oxopyrrolidin-3-yl]methyl]propyl]carbamoyl]phenyl]carbamate], which IC50 is on record?
**A.** The IC50 was 3.9 nM.

**Q.** How did the IC50 turn out when `CC(C)C(=O)Nc1ccc(Cl)cc1C(=O)N[C@@H](C[C@@H]1C[C@@H](C)NC1=O)C(=O)C(=O)NC1CC1` [Example 147, 5-chloro-N-[(1S)-3-(cyclopropylamino)-1-[[(3S,5R)-5-methyl-2-oxo-pyrrolidin-3-yl]methyl]-2,3-dioxo-propyl]-2-(2-methylpropanoylamino) benzamide] was run?
**A.** Its IC50 is 11.6 nM.

**Q.** Which IC50 does the source give for `C[C@@H]1C[C@@H](C[C@H](NC(=O)c2cc(Cl)ccc2NC(=O)N(C)C)C(=O)C(=O)NC2CC2)C(=O)N1` [Example 148, 5-chloro-N-[(1S)-3-(cyclopropylamino)-1-[[(3S,5R)-5-methyl-2-oxo-pyrrolidin-3-yl]methyl]-2,3-dioxo-propyl]-2-(dimethylcarbamoylamino) benzamide] here?
**A.** The IC50 was 24.7 nM.

**Q.** For `CNC(=O)C(=O)[C@H](C[C@@H]1C[C@@H](C)NC1=O)NC(=O)c1cc(Cl)ccc1NC(=O)C1CN(C)C1` [Example 149, N-[4-chloro-2-[[(1S)-3-(methylamino)-1-[[(3S,5R)-5-methyl-2-oxo-pyrrolidin-3-yl]methyl]-2,3-dioxo-propyl]carbamoyl]phenyl]-1-methyl-azetidine-3-carboxamide], which IC50 is on record?
**A.** Its IC50 is 10.8 nM.

**Q.** Which IC50 does the source give for `O=C(Nc1cc(F)c(F)cc1C(=O)N[C@@H](C[C@@H]1CCNC1=O)C(=O)C(=O)NC1CC1)OC1CC1` [Example 150] here?
**A.** Its IC50 is 17.9 nM.

**Q.** `CNC(=O)C(=O)[C@H](C[C@@H]1C[C@@H](C)NC1=O)NC(=O)c1cc(Cl)ccc1NC(=O)OC1CCC1` [Example 151, cyclobutyl N-[4-chloro-2-[[(1S)-3-(methylamino)-1-[[(3S,5R)-5-methyl-2-oxo-pyrrolidin-3-yl]methyl]-2,3-dioxo-propyl]carbamoyl]phenyl] carbamate] was tested. Which IC50 did it give?
**A.** Its IC50 is 5.1 nM.

**Q.** How did the IC50 turn out when `CNC(=O)C(=O)[C@H](C[C@@H]1C[C@@H](C)NC1=O)NC(=O)c1cc(Cl)ccc1NC(=O)OCC1CC1` [Example 152, cyclopropylmethyl N-[4-chloro-2-[[(1S)-3-(methylamino)-1-[[(3S,5R)-5-methyl-2-oxo-pyrrolidin-3-yl]methyl]-2,3-dioxo-propyl]carbamoyl]phenyl] carbamate] was run?
**A.** Its IC50 is 5 nM.

**Q.** Which IC50 does the source give for `CNC(=O)C(=O)[C@H](C[C@@H]1C[C@@H](C)NC1=O)NC(=O)c1cc(Cl)ccc1NC(=O)OC(C)(C)C` [Example 153, tert-butyl N-[4-chloro-2-[[(1S)-3-(methylamino)-1-[[(3S,5R)-5-methyl-2-oxo-pyrrolidin-3-yl]methyl]-2,3-dioxo-propyl]carbamoyl]phenyl] carbamate] here?
**A.** The IC50 was 39.8 nM.

**Q.** Which IC50 does the source give for `CNC(=O)C(=O)[C@H](C[C@@H]1C[C@@H](C)NC1=O)NC(=O)c1cc(Cl)c(F)cc1NC(=O)OC1CC1` [Example 154, cyclopropyl N-[4-chloro-5-fluoro-2-[(1S)-3-(methylamino)-1-[[(3S,5R)-5-methyl-2-oxo-pyrrolidin-3-yl]methyl]-2,3-dioxo-propyl]carbamoyl]phenyl] carbamate] here?
**A.** Its IC50 is 4.5 nM.

**Q.** With `CNC(=O)C(=O)[C@H](C[C@@H]1C[C@@H](C)NC1=O)NC(=O)c1cc(F)c(Cl)cc1NC(=O)OC1CC1` [Example 155, cyclopropyl N-[5-chloro-4-fluoro-2-[[(1S)-3-(methylamino)-1-[[(3S,5R)-5-methyl-2-oxo-pyrrolidin-3-yl]methyl]-2,3-dioxo-propyl]carbamoyl]phenyl] carbamate] as the compound, how does the IC50 read?
**A.** Its IC50 is 30.4 nM.

**Q.** With `CNC(=O)C(=O)[C@H](C[C@@H]1CCNC1=O)NC(=O)c1cc(Cl)ccc1NC(=O)OC1CC1(F)F` (stereo partly shown) [Example 156] as the compound, how does the IC50 read?
**A.** The IC50 was 14.6 nM.

**Q.** Which IC50 does the source give for `CNC(=O)C(=O)[C@H](C[C@@H]1CCNC1=O)NC(=O)c1cc(Cl)ccc1NC(=O)OC1CC1(F)F` (stereo partly drawn) [Example 157, (2,2-difluorocyclopropyl) N-[4-chloro-2-[[(1S)-3-(methylamino)-2,3-dioxo-1-[[(3S)-2-oxopyrrolidin-3-yl]methyl]propyl]carbamoyl]phenyl]carbamate] here?
**A.** The IC50 was 8.9 nM.

**Q.** With `C[C@@H]1C[C@@H](C[C@H](NC(=O)c2cc(Cl)ccc2NC(=O)CCC(F)(F)F)C(=O)C(N)=O)C(=O)N1` [Example 158, N-[(1S)-3-amino-1-[[(3S,5R)-5-methyl-2-oxo-pyrrolidin-3-yl]methyl]-2,3-dioxo-propyl]-5-chloro-2-(4,4,4-trifluorobutanoylamino) benzamide] as the compound, how does the IC50 read?
**A.** The IC50 was 8.3 nM.

**Q.** With `CNC(=O)C(=O)[C@H](C[C@@H]1CCNC1=O)NC(=O)c1cc(Cl)ccc1NC(=O)CCC(F)(F)F` [Example 159, 5-chloro-N-[(1S)-3-(methylamino)-2,3-dioxo-1-[[(3S)-2-oxopyrrolidin-3-yl]methyl]propyl]-2-(4,4,4-trifluorobutanoylamino) benzamide] as the compound, how does the IC50 read?
**A.** The IC50 was 7.9 nM.

**Q.** `C[C@@H]1C[C@@H](C[C@H](NC(=O)c2cc(Cl)ccc2NC(=O)OC2CC2)C(=O)C(=O)NC2CC2)C(=O)N1` [Example 160, cyclopropyl N-[4-chloro-2-[[(1S)-3-(cyclopropylamino)-1-[[(3S,5R)-5-methyl-2-oxo-pyrrolidin-3-yl]methyl]-2,3-dioxo-propyl]carbamoyl]phenyl] carbamate] was tested. Which IC50 did it give?
**A.** The IC50 was 8.8 nM.

**Q.** `O=C(Nc1ccc(Cl)cc1C(=O)N[C@@H](C[C@@H]1CCNC1=O)C(=O)C(=O)NC1CC1)OC1CCC1` [Example 161, cyclobutyl N-[4-chloro-2-[[(1S)-3-(cyclopropylamino)-2,3-dioxo-1-[[(3S)-2-oxopyrrolidin-3-yl]methyl]propyl]carbamoyl]phenyl]carbamate] was tested. Which IC50 did it give?
**A.** The IC50 was 5.9 nM.

**Q.** Which IC50 does the source give for `O=C(Nc1ccc(Cl)cc1C(=O)N[C@@H](C[C@@H]1CCNC1=O)C(=O)C(=O)NC1CC1)OCC1CC1` [Example 162, cyclopropylmethyl N-[4-chloro-2-[[(1S)-3-(cyclopropylamino)-2,3-dioxo-1-[[(3S)-2-oxopyrrolidin-3-yl]methyl]propyl]carbamoyl]phenyl]carbamate] here?
**A.** The IC50 was 7.5 nM.

**Q.** With `CNC(=O)C(=O)[C@H](C[C@@H]1CCNC1=O)NC(=O)c1cc(Cl)ccc1NC(=O)OCC(F)(F)F` [Example 163, 2,2,2-trifluoroethyl N-[4-chloro-2-[[(1S)-3-(methylamino)-2,3-dioxo-1-[[(3S)-2-oxopyrrolidin-3-yl]methyl]propyl]carbamoyl]phenyl]carbamate] as the compound, how does the IC50 read?
**A.** Its IC50 is 8.6 nM.

**Q.** With `CO[C@H](C)C(=O)Nc1ccc(Cl)cc1C(=O)N[C@@H](C[C@@H]1C[C@@H](C)NC1=O)C(=O)C(=O)NC1CC1` [Example 164, 5-chloro-N-[(1S)-3-(cyclopropylamino)-1-[[(3S,5R)-5-methyl-2-oxo-pyrrolidin-3-yl]methyl]-2,3-dioxo-propyl]-2-[[(2R)-2-methoxypropanoyl]amino] benzamide] as the compound, how does the IC50 read?
**A.** Its IC50 is 4.8 nM.

**Q.** How did the IC50 turn out when `C[C@@H]1C[C@@H](C[C@H](NC(=O)c2cc(Cl)ccc2NC(=O)C(C)(C)O)C(=O)C(=O)NC2CC2)C(=O)N1` [Example 165, 5-chloro-N-[(1S)-3-(cyclopropylamino)-1-[[(3S,5R)-5-methyl-2-oxo-pyrrolidin-3-yl]methyl]-2,3-dioxo-propyl]-2-[(2-hydroxy-2-methyl-propanoyl)amino]benzamide] was run?
**A.** The IC50 was 6.3 nM.

**Q.** `CO[C@@H](C)C(=O)Nc1ccc(Cl)cc1C(=O)N[C@@H](C[C@@H]1C[C@@H](C)NC1=O)C(=O)C(=O)NC1CC1` [Example 166, 5-chloro-N-[(1S)-3-(cyclopropylamino)-1-[[(3S,5R)-5-methyl-2-oxo-pyrrolidin-3-yl]methyl]-2,3-dioxo-propyl]-2-[[(2S)-2-methoxypropanoyl]amino] benzamide] was tested. Which IC50 did it give?
**A.** Its IC50 is 10.1 nM.

**Q.** For `CNC(=O)C(=O)[C@H](C[C@@H]1C[C@@H](C)NC1=O)NC(=O)c1cc(Cl)ccc1NC(=O)OC1CCCC1` [Example 167, cyclopentyl N-[4-chloro-2-[[(1S)-3-(methylamino)-1-[[(3S,5R)-5-methyl-2-oxo-pyrrolidin-3-yl]methyl]-2,3-dioxo-propyl]carbamoyl]phenyl] carbamate], which IC50 is on record?
**A.** Its IC50 is 5.5 nM.
